Broadly, the GI50 is the concentration that inhibits growth by half. The term TGI denotes the concentration giving total growth inhibition. Lower therefore signals more potent growth arrest.

Molecules are shown by their SMILES. “And” between values parts separate entries of the source, which are not always exact repeats. Identical values can stand only once.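 Five compound concentrations were applied to cells in 96-well plates for 48 hours; endpoints were derived by simple linear interpolation of the resulting dose-response curve. GI50 is the concentration that inhibits growth by half. TGI is the concentration that stops growth completely.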

Some test systems named below: CCRF-CEM leukemia; HCT-15 colon; MDA-MB-231 breast; MOLT-4 leukemia; NCI-H226 lung; NCI-H23 lung; NCI-H522 lung; SNB-75 CNS; SR leukemia; TK-10 renal.
Holding throughout (assay): DTP human tumour cell line panel, 48 h

For `Oc1ccc2cc(Br)ccc2c1-c1c(O)ccc2cc(Br)ccc12`, the GI50 with CCRF-CEM leukemia was 3.31 µM; with HCT-15 colon, 3.2 µM; in the assay with MDA-MB-231 breast it was 1.76 µM; in the assay with MOLT-4 leukemia, 2.83 µM; in the assay with NCI-H226 lung it was 2.66 µM; with NCI-H23 lung, 2.23 µM. For the same molecule, the GI50 with NCI-H522 lung is 1.98 µM; in the assay on SNB-75 CNS it was 3.15 µM; in the assay on SR leukemia, 2.52 µM; in the assay with TK-10 renal, 2.52 µM. For the same molecule, the TGI in the assay on CCRF-CEM leukemia stood at 12 µM; in the assay on HCT-15 colon, 12.1 µM; in the assay on MDA-MB-231 breast, 4.55 µM; in the assay with MOLT-4 leukemia, 11 µM; in the assay on NCI-H226 lung it was 8.9 µM; in the assay on NCI-H23 lung, 5.82 µM. Also, the TGI in the assay with NCI-H522 lung worked out at 4.53 µM; in the assay with SNB-75 CNS, 13.9 µM; with SR leukemia, 7.43 µM; in the assay on TK-10 renal it was 5.86 µM.

For `COc1ccccc1OCC(=O)Nc1sc2c(c1C(N)=O)CCC2`, the GI50 in the assay with CCRF-CEM leukemia is > 100 µM; in the assay with HCT-15 colon, 33.4 µM; with MDA-MB-231 breast, > 100 µM; in the assay with MOLT-4 leukemia, > 100 µM; in the assay with NCI-H226 lung it was 44.3 µM; in the assay with NCI-H23 lung it was > 100 µM. The GI50 with NCI-H522 lung, in the assay on SNB-75 CNS, in the assay on SR leukemia and in the assay with TK-10 renal was > 100 µM each time. Moreover, the TGI in the assay with CCRF-CEM leukemia, with HCT-15 colon, in the assay on MDA-MB-231 breast, with MOLT-4 leukemia, in the assay on NCI-H226 lung and in the assay with NCI-H23 lung was > 100 µM each time. The TGI in the assay on NCI-H522 lung, with SNB-75 CNS, in the assay on SR leukemia and in the assay with TK-10 renal was > 100 µM each time.

Take `COc1ccc(CCN2C(=O)C=CC2=O)cc1OC`: the TGI with CCRF-CEM leukemia turned out to be 2.93 µM; in the assay on HCT-15 colon, 3.83 µM; in the assay with MDA-MB-231 breast it was 28.5 µM; in the assay with MOLT-4 leukemia, 5.49 µM; in the assay on NCI-H226 lung, 13 µM; in the assay on NCI-H23 lung, 53.8 µM. Further, the TGI turned out to be 3.17 µM in the assay with NCI-H522 lung, 36.1 µM in the assay on SNB-75 CNS, 6.7 µM in the assay with SR leukemia and 33.2 µM in the assay on TK-10 renal.

Turning to `CC1=NN(c2ccccc2)C(=O)C1N=Nc1ccc([As](=O)(O)O)c(O)c1` (configuration not stated), the TGI in the assay with CCRF-CEM leukemia is 92.6 µM; with HCT-15 colon it was > 100 µM; with MDA-MB-231 breast it was > 100 µM; in the assay on MOLT-4 leukemia it was > 100 µM; with NCI-H226 lung, > 100 µM; with NCI-H23 lung, > 100 µM. Further, the TGI in the assay with NCI-H522 lung, in the assay on SNB-75 CNS, in the assay on SR leukemia and in the assay on TK-10 renal was > 100 µM throughout.

For `Oc1ccc(-c2nnc3sc(-c4ccc(F)c(Oc5ccccc5)c4)nn23)cc1`, the GI50 in the assay on CCRF-CEM leukemia is > 100 µM; in the assay with HCT-15 colon, 91.2 µM; in the assay on MDA-MB-231 breast, 16.4 µM; with MOLT-4 leukemia it was 22.2 µM; in the assay with NCI-H226 lung, 24.6 µM; with NCI-H23 lung, 29.3 µM. Also, the GI50 in the assay on NCI-H522 lung is 72.5 µM; in the assay on SNB-75 CNS, 26.4 µM; in the assay on SR leukemia, 29.9 µM; in the assay with TK-10 renal it was 29.6 µM. Moreover, the TGI in the assay with CCRF-CEM leukemia was > 100 µM; in the assay on HCT-15 colon, > 100 µM; in the assay on MDA-MB-231 breast, 47.4 µM; with MOLT-4 leukemia it was > 100 µM; with NCI-H226 lung, 98.4 µM; with NCI-H23 lung, 92.2 µM. In addition, the TGI in the assay with NCI-H522 lung is > 100 µM; with SNB-75 CNS it was 62.1 µM; in the assay on SR leukemia, > 100 µM; in the assay on TK-10 renal, 77 µM.

Turning to `O=C1CC(c2ccc(N3CCOCC3)cc2)(c2ccsc2)NC(=O)C1Sc1ccccc1Cl` (configuration not stated), the GI50 with CCRF-CEM leukemia was 6 µM; with HCT-15 colon, 56.7 µM; in the assay with MDA-MB-231 breast it was 45.9 µM; with MOLT-4 leukemia, 46.9 µM; with NCI-H226 lung, > 100 µM; in the assay with NCI-H23 lung, 65.5 µM. The GI50 in the assay on NCI-H522 lung is 13.8 µM; with SNB-75 CNS, 54.9 µM; in the assay on SR leukemia, 4.4 µM; in the assay with TK-10 renal, > 100 µM. The TGI in the assay on CCRF-CEM leukemia, in the assay on HCT-15 colon, in the assay on MDA-MB-231 breast, in the assay with MOLT-4 leukemia, with NCI-H226 lung and in the assay with NCI-H23 lung was > 100 µM each time. Besides, the TGI in the assay with NCI-H522 lung, in the assay with SNB-75 CNS, in the assay with SR leukemia and in the assay on TK-10 renal was > 100 µM throughout.

As for `O=c1c2cccc(Cl)c2sc2c(NCCCNCCO)nc3ccccc3c12`, the GI50 with CCRF-CEM leukemia is 2.34 µM; in the assay on HCT-15 colon, 1.54 µM; with MDA-MB-231 breast, 1.4 µM; in the assay on MOLT-4 leukemia it was 2.12 µM; in the assay with NCI-H226 lung, 6.24 µM; in the assay with NCI-H23 lung it was 3.62 µM. Moreover, the GI50 in the assay on NCI-H522 lung was 1.99 µM; in the assay with SNB-75 CNS, 7.69 µM; in the assay with SR leukemia, 1.6 µM; with TK-10 renal, 3.07 µM. Further, the TGI with CCRF-CEM leukemia amounted to 8.39 µM; in the assay with HCT-15 colon, 3.33 µM; in the assay with MDA-MB-231 breast, 3.54 µM; in the assay on MOLT-4 leukemia, 5.19 µM; with NCI-H226 lung, 23.9 µM; with NCI-H23 lung it was 16.5 µM. Also, the TGI with NCI-H522 lung came to 4.42 µM; in the assay with SNB-75 CNS, 22 µM; with SR leukemia, 5.97 µM; in the assay with TK-10 renal it was 7.69 µM.

Take `COc1ccc2nc(-c3cc(-c4cc(OC)c(OC)c(OC)c4)n[nH]3)[nH]c2c1`: the GI50 in the assay on CCRF-CEM leukemia is 1.29 µM; in the assay with HCT-15 colon, 2.5 µM; in the assay on MDA-MB-231 breast, 2.87 µM; with MOLT-4 leukemia, 0.738 µM; with NCI-H226 lung it was 0.462 µM; with NCI-H23 lung, 1.34 µM. The GI50 was 1.21 µM in the assay with NCI-H522 lung, 2.23 µM in the assay with SNB-75 CNS, 1.74 µM in the assay on SR leukemia and 2.21 µM in the assay with TK-10 renal. Moreover, the TGI with CCRF-CEM leukemia is 4.12 µM; in the assay on HCT-15 colon, 10.7 µM; in the assay on MDA-MB-231 breast, 12.9 µM; with MOLT-4 leukemia it was 3.27 µM; with NCI-H226 lung it was 2.98 µM; in the assay with NCI-H23 lung, 4.91 µM. Further, the TGI in the assay on NCI-H522 lung was determined as 3.98 µM; in the assay on SNB-75 CNS, 6.34 µM; in the assay on SR leukemia it was 8.38 µM; in the assay with TK-10 renal it was 7.58 µM.

For `COC(=O)NC1C(C)OC(OC2C/C=C(/C)C3C=CC4C(OC5CC(OC6CC(O)C(OC7CC(O)C(OC)C(C)O7)C(C)O6)C(O)C(C)O5)C(C)CC(C)C4C3(C)/C(O)=C3\C(=O)OC4(CC(C)C(CO)=CC4/C=C\2C)C3=O)CC1(C)[N+](=O)[O-]` (configuration not stated), the GI50 in the assay on CCRF-CEM leukemia is 9.71 µM; in the assay on MOLT-4 leukemia, 18.2 µM; in the assay with NCI-H226 lung it was 10 µM; with NCI-H23 lung, 8.68 µM; in the assay with SNB-75 CNS, 11 µM; in the assay with SR leukemia it was 23.2 µM. In addition, in the assay on TK-10 renal, the GI50 is 25.8 µM. In addition, the TGI was 36.8 µM and 23.6 µM in the assay with CCRF-CEM leukemia; 50 µM and 40.8 µM in the assay with HCT-15 colon; 36 µM in the assay on MDA-MB-231 breast; 50 µM and 20.2 µM in the assay on MOLT-4 leukemia; 22.3 µM and 31.6 µM in the assay with NCI-H226 lung; 17.2 µM and 27.8 µM in the assay with NCI-H23 lung. In addition, the TGI was 11.7 µM and 22.7 µM in the assay with NCI-H522 lung; 33.5 µM and 46.2 µM in the assay on SNB-75 CNS; 50 µM and > 100 µM in the assay with SR leukemia; 32.5 µM and 81.2 µM in the assay with TK-10 renal.
